This note sets out measurements from patent US5219859A, “Indole derivatives, preparation processes and medicinal products containing them” (Lipha, Lyonnaise Industrielle Pharmaceutique, priority 1991, dated 1993).

One may read the ED50 as the dose that gives a 50% effect, or the effect in half of the subjects.

For assay [1], the target named is T1, aortic ACAT (acylcoenzyme A:cholesterol acyltransferase) (Oryctolagus cuniculus, UniProt A0A5F9CPP4).
T1 construct: the aorta is removed, dissected and homogenised in order to prepare the microsomal fraction of it by ultracentrifugation; from tissue; host or cells: aorta microsomes of cholesterol-fed male New Zealand rabbits
T1 sequence (A0A5F9CPP4 1-555): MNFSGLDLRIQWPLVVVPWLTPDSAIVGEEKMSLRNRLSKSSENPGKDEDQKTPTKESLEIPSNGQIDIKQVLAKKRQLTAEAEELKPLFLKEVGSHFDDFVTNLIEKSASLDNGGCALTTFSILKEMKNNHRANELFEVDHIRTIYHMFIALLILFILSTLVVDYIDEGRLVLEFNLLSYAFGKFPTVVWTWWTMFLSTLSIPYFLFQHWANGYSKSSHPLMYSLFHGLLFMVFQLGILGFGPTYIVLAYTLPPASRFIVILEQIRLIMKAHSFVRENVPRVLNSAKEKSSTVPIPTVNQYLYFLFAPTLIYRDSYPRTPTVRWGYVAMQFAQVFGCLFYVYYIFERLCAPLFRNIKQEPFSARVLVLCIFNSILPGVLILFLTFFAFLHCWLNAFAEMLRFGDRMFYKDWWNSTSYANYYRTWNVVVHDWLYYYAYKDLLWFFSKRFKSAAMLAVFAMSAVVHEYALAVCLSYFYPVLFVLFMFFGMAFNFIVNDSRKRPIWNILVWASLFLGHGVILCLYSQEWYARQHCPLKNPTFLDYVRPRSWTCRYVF
Kind of assay: Test A: measurement of the inhibition of aortic ACAT in vitro in rabbits. It is filed as biochemical, male New Zealand rabbits. The note with it: microsomal fraction of aorta of rabbits on a diet enriched with 1.25% of cholesterol; [^14 C]oleylcoenzyme A; read-out: 50% inhibitory concentration (IC50), concentration of compound which inhibits the ACAT activity by 50%. How it is done:
Test A: measurement of the inhibition of aortic ACAT in virro in rabbits: male New Zealand rabbits weighing between 2.2 and 2.5 kg, subjected beforehand for 15 days to a diet enriched with 1.25% of cholesterol, are sacrificed by cervical dislocation; the aorta is removed, dissected and homogenised in order to prepare the microsomal fraction of it by ultracentrifugation; these microsomes are incubated in the presence of [^14 C]oleylcoenzyme A in accordance with the method described by P. J. GILLIES et al., Exp. and Mol. Pathol., 1986, 44, 329-339; the lipids are extracted from the incubate with a methanol/chloroform mixture and the [^14 C]oleylcholesterol is separated by TLC: the latter compound represents a measure of the ACAT activity, and the results were expressed in the form of a 50% inhibitory concentration (IC50), representing the concentration of compound which inhibits the ACAT activity by 50%.

Assay [2] concerns blood cholesterol level. The assay can be described thus: Test B: measurement of the hypocholesterolaemic effect in rodents. It counts as in vivo, male Wistar rats. The note with it: Rattus norvegicus, po; rats, diet enriched with 2.5% of cholesterol for 8 days; orally, 24 hours and 4 hours before sacrifice; read-out: 25% effective dose (ED25), quantity of compound which lowers the blood cholesterol level by 25%. As to the method:
Test B: measurement of the hypocholesterolaemic effect in rodents: male Wistar rats weighing 200-220 g are subjected to a diet enriched with 2.5% of cholesterol for 8 days; on the last two days, they are treated orally with the test product 24 hours and 4 hours before being sacrificed by exsanguination: the blood cholesterol level is evaluated on an aliquot fraction of serum by an automated enzymatic method. The results are expressed in the form of a 25% effective dose (ED25) in mg per kg of body weight, representing the quantity of compound which lowers the blood cholesterol level by 25%.

For assay [3], the system named is intestinal absorption of cholesterol. Kind of assay: Test C: measurement of the inhibition of intestinal absorption in rats. It is filed as in vivo, male Wistar rats. To be noted: Rattus norvegicus, po, fasted 24 hours, orally, with Triton WR-1339 I.V., [^3 H]cholesterol orally one hour later, blood three hours later, read-out: 50% effective dose (ED50), quantity of compound which inhibits the intestinal absorption of cholesterol by 50%. How it is done:
Test C: measurement of the inhibition of intestinal absorption in rats; male Wistar rats weighing 230-250 g, fasted for 24 hours, are treated simultaneously with the test product administered orally and with Triton WR-1339 administered I.V.; one hour later, they are again treated orally with [^3 H]cholesterol; three hours later, under ether anaesthesia, 1 ml of blood is withdrawn from the animals' retro-orbital sinus: the blood radioactivity, evaluated on 0.1 ml of serum, represents a measure of the absorption of the [^3 H]cholesterol administered. The results are expressed in the form of a 50% effective dose (ED50) in mg per kg of body weight, representing the quantity of compound which inhibits the intestinal absorption of cholesterol by 50%.

Assay [4] deals with blood sugar level. Kind of assay: Test D: measurement of the hypoglycaemic effect. It counts as in vivo, male Swiss mice. To be noted: mice, orally, dose of 60 mg.kg, one hour. How it is done: Test D: measurement of the hypoglycaemic effect: male Swiss mice weighing 26-28 g are treated orally with the test product. One hour later, the animals are sacrificed by exsanguination, and the blood sugar level is measured on an aliquot fraction of plasma by an enzymatic method employing glucose oxidase.

Regarding `CC(C)c1cccc(C(C)C)c1NC(=O)NCC1(c2cn(C)c3ccccc23)CCCC1` [compound No. 1, N^1-(2,6-Diisopropylphenyl)-N^2-[1-(1-methyl-3-indolyl)-cyclopentylmethyl]urea], the IC50 in assay [1] amounted to 46 nM. Further, in assay [2], the ED25 was determined as 0.098 mg/kg. Further, the ED50 in assay [3] worked out at 0.176 mg/kg. Further, the “significant lowering of the blood sugar level” value in assay [4] is 21%.
